# Assay results as given in ChEMBL document CHEMBL3044861, “Synthesis and Herbicidal Activity of New 2-(1-Carbamoyl-1, 2, 4-triazol-3-ylsulfonyl) alkanoates” (J Pestic Sci, 2002).
# Tests used:
# [1] = Octanol-water partition coefficient, log K of the compound; type: physicochemical; settings: read-out: log K
# [2] = system: Echinochloa oryzicola; assay: Herbicidal activity against Echinochloa oryzicola assessed as killing pre-emergence application under paddy conditions; type: functional
# [3] = system: Zea mays; assay: Herbicidal activity against Zea mays (maize)assessed as killing at 500 g/ha pre-emergence application upland paddy conditions measured after 14 days; type: functional
# [4] = system: Chenopodium album; assay: Herbicidal activity against Chenopodium album assessed as killing at 500 g/ha pre-emergence application upland paddy conditions measured after 14 days; type: functional
# [5] = system: Digitaria ciliaris; assay: Herbicidal activity against Digitaria ciliaris assessed as killing at 500 g/ha pre-emergence application upland paddy conditions measured after 14 days; type: functional
# [6] = system: Echinochloa crus-galli; assay: Herbicidal activity against Echinochloa crus-galli (barnyard grass) assessed as killing at 500 g/ha pre-emergence application upland paddy conditions measured after 14 days; type: functional
# [7] = system: Oryza sativa; assay: Toxicity in Oryza sativa (rice) assessed as injury at 50 g/ha pre-emergence application under paddy conditions by crop safety assay; type: organism-based; settings: in vivo, other
# [8] = system: Schoenoplectiella juncoides; assay: Herbicidal activity against Schoenoplectiella juncoides assessed as killing at 50 g/ha pre-emergence application under paddy conditions; type: functional
# [9] = system: Pontederia vaginalis; assay: Herbicidal activity against Monochoria vaginalis assessed as killing at 50 g/ha pre-emergence application under paddy conditions; type: functional
# [10] = Herbicidal activity against broadleaf weed assessed as killing at 50 g/ha pre-emergence application under paddy conditions; type: functional
# [11] = system: Echinochloa oryzicola; assay: Herbicidal activity against Echinochloa oryzicola assessed as killing at 50 g/ha pre-emergence application under paddy conditions; type: functional
SMILES,logP [1],log(1/ED80) [2],Activity [3],Activity [4],Activity [5],Activity [6],Activity [7],Activity [8],Activity [9],Activity [10],Activity [11]
CCN(CC)C(=O)n1cnc(S(=O)(=O)C(Cc2ccccc2)C(=O)OC)n1 (stereo not given),0.69,0.6,10%,30%,10%,10%,10%,10%,10%,10%,50%
CCN(CC)C(=O)n1cnc(S(=O)(=O)C(C(=O)OC)C(C)C)n1 (stereo not given),0.56,1.24,30%,90%,90%,80%,40%,100%,100%,90%,100%
CCN(CC)C(=O)n1cnc(S(=O)(=O)C(C)C(=O)OC)n1 (stereo not given),0.41,-0.1,20%,60%,80%,60%,10%,10%,10%,10%,10%
CCC(C(=O)OC)S(=O)(=O)c1ncn(C(=O)N(CC)CC)n1 (stereo not given),0.49,0.74,30%,40%,50%,60%,10%,10%,10%,10%,60%
C=CC(C)C(C(=O)OC)S(=O)(=O)c1ncn(C(=O)N(CC)CC)n1 (stereo not given),0.63,0.65,70%,90%,90%,90%,10%,10%,10%,10%,60%
CCC(CC)C(C(=O)OC)S(=O)(=O)c1ncn(C(=O)N(CC)CC)n1 (stereo not given),0.76,1.4,30%,90%,90%,100%,10%,80%,100%,90%,100%
CCC(C)CC(C(=O)OC)S(=O)(=O)c1ncn(C(=O)N(CC)CC)n1 (stereo not given),0.79,0.99,20%,100%,90%,90%,10%,80%,40%,80%,90%
CC(C)CC(C(=O)OC(C)C)S(=O)(=O)c1ncn(C(=O)N2CCCC2)n1 (stereo not given),–,–,–,–,–,–,10%,10%,10%,30%,40%
CCN(CC)C(=O)C(CC(C)C)S(=O)(=O)c1ncn(C(=O)N(CC)CC)n1 (stereo not given),–,–,–,–,–,–,20%,10%,10%,10%,10%
CCCC(C(=O)OC)S(=O)(=O)c1ncn(C(=O)N(CC)CC)n1 (stereo not given),0.58,1.14,50%,100%,100%,100%,10%,60%,60%,60%,100%
CCN(CC)C(=O)n1cnc(S(=O)(=O)C(C(=O)OC)C2CC2)n1 (stereo not given),0.47,0.24,20%,80%,100%,90%,10%,10%,10%,10%,10%
CCN(CC)C(=O)n1cnc(S(=O)(=O)C(CC(=O)OC)C(=O)OC)n1 (stereo not given),0.45,-0.04,10%,30%,60%,50%,10%,10%,10%,10%,10%
CCN(CC)C(=O)n1cnc(S(=O)(=O)CC(=O)OC)n1,0.36,0.18,10%,30%,50%,40%,10%,10%,10%,10%,10%
CCN(CC)C(=O)n1cnc(S(=O)(=O)CCC(C)C)n1,–,–,–,–,–,–,10%,10%,10%,50%,100%
CC(C)CC(C(=O)OC(C)C)S(=O)(=O)c1ncn(C(=O)N(C)C)n1 (stereo not given),–,–,–,–,–,–,–,10%,10%,40%,60%
CCC(C)C(C(=O)OC)S(=O)(=O)c1ncn(C(=O)N(CC)CC)n1 (stereo not given),0.66,0.95,40%,100%,100%,90%,10%,90%,60%,80%,100%
C=C(C)CC(C(=O)OC)S(=O)(=O)c1ncn(C(=O)N(CC)CC)n1 (stereo not given),0.63,0.95,40%,100%,100%,100%,10%,60%,100%,90%,90%
CC(C)CC(C(=O)OC(C)C)S(=O)(=O)c1ncn(C(=O)N(C)C2CCCCC2)n1 (stereo not given),–,–,–,–,–,–,–,10%,10%,50%,30%
CCN(CC)C(=O)n1cnc(S(=O)(=O)C(CCCC#N)C(=O)OC)n1 (stereo not given),0.41,0.05,70%,90%,90%,90%,10%,10%,10%,10%,10%
CC(C)CC(C(=O)OC(C)C)S(=O)(=O)c1ncn(C(=O)N2CCOCC2)n1 (stereo not given),–,–,–,–,–,–,–,10%,10%,10%,10%
CC(C)CC(C(=O)OC(C)C)S(=O)(=O)c1ncn(C(=O)N(C)c2ccccc2)n1 (stereo not given),–,–,–,–,–,–,–,10%,10%,40%,20%
CCN(CC)C(=O)n1cnc(S(=O)(=O)C(CC2CC2)C(=O)OC)n1 (stereo not given),0.6,0.95,60%,100%,90%,90%,10%,60%,100%,90%,100%
CC(C)CC(C(=O)OC(C)C)S(=O)(=O)c1ncn(C(=O)N(C(C)C)C(C)C)n1 (stereo not given),–,–,–,–,–,–,–,30%,10%,60%,60%
